Measured values taken from US6756362B2, “Methods and compositions based on inhibition of cell invasion and fibrosis by anionic polymers” (priority 1991, dated 2004).
Blank lines part the entries; values can stand above or below the substance they belong to.

What was measured:
[1] = test system: MCG-28 young immortalized mouse astrocyte; assay: Stripe assay, MCG-28; assay type: cell-based; parameters: key: Bands that were completely inhibitory to cell adhesion, migration and/or invasion were evaluated as (−); those allowing limited cell adhesion, migration and/or invasion (+/−); those permissive to cell adhesion, migration and/or invasion as (+); details: MCG28; for DS-PG Effect on Adhesion, Migration and Invasion: 2 days following plating
Procedure: (§1) Cell lines. Murine 3T3 fibroblast (NIH), rat C6 glioma (Paganetti et al., 1988, J. Cell Biol. 107:2281) and MCG-28 young immortalized mouse astrocyte (a murine neonatal astrocyte line immortalized with SV-40) were grown in medium composed of Dulbecco's modified Eagle medium (DMEM), 10% fetal calf serum (Gibco Laboratories), and penicillin G/streptomycin (100 units/ml, 100 μg/ml respectively, Gibco Laboratories). For the stripe assay, confluent plates were disaggregated with 0.05% trypsin, 0.53 mM EDTA (Gibco Laboratories) and seeded at 200,000 cells/ml (3 ml/plate). For the cell adhesion assays, confluent cultures were disaggregated with 0.03% EDTA and plated in a 96-well microtiter plate at 20,000-100,000 cells per well. PC12 cells, a pheochromocytoma cell line (Green L. A. & Tischler A. S., 1976, Proc. Natl. Acad. Sci. U.S.A. 73:2424), were grown in medium containing Roswell Park Memorial Institute (RPMI) medium 1640 (Gibco Laboratories), 10% horse serum, 5% fetal calf serum (FCS), and penicillin G/streptomycin (100 units/ml, 100 μg/ml respectively, Gibco Laboratories). The cells were disaggregated with 0.03% EDTA and plated in a 96-well microtiter plate at 3,000 cells per well.
(§2) The stripe assay was performed essentially as described by Snow et al. (1990, Exp. Neural. 309:111-130). Tissue culture Petri dishes (Falcon, 60 mm) were precoated with 0.5 ml of a mixture of 5 cm^2 section nitrocellulose (Schleicher & Schuell, Type BA 85) dissolved in 6 ml methanol, and air dried in a laminar flow hood. Cellulose filter paper (Whatman #1) was cut into 12×0.35 mm strips with a McIlwain tissue chopper (The Mickle Laboratory Engineering Co., LTD). A strip of filter paper was soaked in 20 μl of a solution of DS-PG or KS/CS-PG and LN at given concentration, blotted onto the nitrocellulose-coated dish for 30 sec. and removed. The test solution was allowed to air dry. This process was repeated several times creating clearly defined, equally spaced parallel bands of uniform width on the plates. A thin layer of 0.1 or 1 mg/ml LN was then spread evenly across the bands with a bent glass Pasteur pipet, and covered with culture medium (FIG. 1).
(§3) Plates were seeded with cell suspensions of 2.0×10^5 cells/ml or 4-10 DRG explants. The cultures were assessed for degree of adhesion, migration and/or invasion of the DS-PG or KS/CS-PG bands over a period of up to 7 days using a Leitz Fluovert microscope.
(§4) Bands that were completely inhibitory to cell adhesion, migration and/or invasion were evaluated as (−), those allowing limited cell adhesion, migration and/or invasion (+/−), and those permissive to cell adhesion, migration and/or invasion as (+). cell adhesion was defined as the initial interaction between the cell surface and the substratum which results in cell attachment and spreading. Cell migration was operationally defined as cell movement within the same substratum, and cell invasion was operationally defined as cell movement from one type of substratum to another type of substratum.

[2] = test system: dorsal root ganglia (DRG) explants; assay: Stripe assay, DRG explants; assay type: cell-based, chick; parameters: key: Bands that were completely inhibitory to cell adhesion, migration and/or invasion were evaluated as (−); those allowing limited cell adhesion, migration and/or invasion (+/−); those permissive to cell adhesion, migration and/or invasion as (+); details: for DS-PG Effect on Adhesion, Migration and Invasion: 2 days following plating
Procedure: Primary Explant Cultures. Dorsal root ganglia (DRGs) were obtained from E8-E9 chick embryos. The dissection was carried out in CMF-HBSS. The spinal cord was exposed and DRGs were removed and cleaned from surrounding connective tissue. DRGs were plated in DMEM/F12, 10% fetal calf serum containing 50 ng/ml nerve growth factor (NGF). The DRGs were seeded on laminin (LN, Gibco Laboratories) or poly-L-lysine (PLL, Sigma) coated dishes.
as §2, §3, §4

3T3 cells = assay: Colorimetric cell adhesion assay, 3T3; assay type: cell-based, mouse; details: 3T3 cells on PLL; 4 hr incubation; FIG. 7
Procedure: as §1
(§5) Microtiter plates were precoated with poly-L-lysine and blocked with 1% BSA in DMEM for 20 min prior to addition of cells. The cells were plated on the precoated 96-well plates and test compounds were added to the culture medium. Following 4-24 hr incubation at 36° C., 5% C02, in a humidified incubator, the tetrazolium salt MTT (3-(4,5-dimethylthazol-2-yl)-2,5-diphenyl tetrazolium bromide) was added. The cultures were incubated for 2 hr to allow mitochondrial succinate dehydrogenase, found in viable cells, to […] the MTT to its formazan blue reaction product. The media was aspirated and the wells were rinsed to remove all detached cells. The formazan blue reaction product in attached cells was solubilized with 0.08 N HCl in isopropanol, and the plates were read in a microtiter plate reader (Dynatech MR4000) at 570 nm with a 630 nm reference filter. The resulting optical density readings are directly related to the number of viable cells in the well (Mosmann, T., 1983, J. Immunol. Methods 65:55-63). The samples were run in 3-6 replicates per point and the SD was less than 5%.
(§6) The adhesion of fibroblasts to PLL-coated microtiter plates in the presence of test compounds in the culture medium was evaluated using an MTT assay as described in Section 8.1.5., supra, and the number of attached cells was expressed as percent of control. The effect of 4 hr incubation in the presence of heparin, pentosan polysulfate, dextran sulfate, and dextran on adhesion of rat meningeal fibroplasts (RMF) and 3T3 cells to PLL is shown in FIG. 7.

[3] = test system: rat meningeal fibroblasts (RMF); assay: Colorimetric cell adhesion assay, RMF; assay type: cell-based; details: RMF on PLL; 4 hr incubation; FIG. 7
Procedure: Primary Cell Cultures. Primary cultures of rat meningeal fibroblasts (RMF) were obtained from P-3 rat pups. The tissue was removed from the animals and transferred to Leibovitz's L-15 with L-glutamine medium. The tissue was then cut into small pieces with a scalpel blade, enzymatically dissociated with 0.25% trypsin in Ca^2+/Mg^2+ free Hank's balanced salt solution (CMF-HBSS, Gibco Laboratories) for 20 minutes at 37° C., and mechanically triturated. The cells were rinsed with DMEM plus 10% FCS, concentrated by centrifugation and subsequently diluted in DMEM with 10% FCS for plating at 5.0×10^6 cells per 75 cm^2 flask. Adult rat sciatic nerve fibroblasts (RSF) were obtained by explantation of 1 mm sections of adult rat sciatic nerve.
as §5, §6

Sulfur content = assay type: physicochemical; details: by weight
[4] = 0.1 mg/ml DS-PG + 20 μg/ml LN stripes
[5] = 0.2 mg/ml DS-PG + 20 μg/ml LN stripes
[6] = 0.4 mg/ml DS-PG + 20 μg/ml LN stripes
[7] = 0.8 mg/ml DS-PG + 20 μg/ml LN stripes
[8] = 0.25 mg/ml KS/CS-PG + LN stripes
[9] = 0.5 mg/ml KS/CS-PG + LN stripes
[10] = 1.0 mg/ml KS/CS-PG + LN stripes
[11] = 2.7 mg/ml KS/CS-PG + LN stripes

Sulfur Content (Sulfur content): 15.3%
Substance: dextran sulfate
number of attached cells compared to untreated controls (3T3 cells): decreased
number of attached cells compared to untreated controls [3]: decreased

Sulfur Content (Sulfur content): 0%
Substance: dextran [reference compound]
number of attached cells compared to untreated controls (3T3 cells): slight increase
number of attached cells compared to untreated controls [3]: slight increase

The next lines start with the substance.

Substance: Dermatan sulfate proteoglycan [DS-PG]
DS-PG Effect on Adhesion, Migration and Invasion [1, 4]: +
DS-PG Effect on Adhesion, Migration and Invasion [1, 5]: +
DS-PG Effect on Adhesion, Migration and Invasion [1, 6]: −
DS-PG Effect on Adhesion, Migration and Invasion [1, 7]: −
DS-PG Effect on Adhesion, Migration and Invasion [2, 4]: +
DS-PG Effect on Adhesion, Migration and Invasion [2, 5]: +/−
DS-PG Effect on Adhesion, Migration and Invasion [2, 6]: −
DS-PG Effect on Adhesion, Migration and Invasion [2, 7]: −

Substance: Heparin
number of attached cells compared to untreated controls (3T3 cells): decreased
number of attached cells compared to untreated controls [3]: decreased
Sulfur Content (Sulfur content): 11.8%

Substance: keratan sulfate/chrondroitin sulfate-proteoglycans [KS/CS-PG]
Effect of KS/CS-PG on Cell Migration [1, 8]: +
Effect of KS/CS-PG on Cell Migration [1, 9]: +
Effect of KS/CS-PG on Cell Migration [1, 10]: +
Effect of KS/CS-PG on Cell Migration [1, 11]: +/−
Effect of KS/CS-PG on Cell Migration [2, 8]: +
Effect of KS/CS-PG on Cell Migration [2, 9]: −
Effect of KS/CS-PG on Cell Migration [2, 10]: −
Effect of KS/CS-PG on Cell Migration [2, 11]: −
